The conditions of data set [1]: in vivo; cited from earlier work.
For data set [2] the following is noted: in water; cited from earlier work.
Data set [3] has as its system HCT116 colon cancer cells. The data set is described as follows: cGMP content of colon cancer cells by competitive ELISA. The note with it: colon cancer cell lines, 2 hours incubation. On the technique in general: In an ELISA, binding on a coated surface is turned into a signal by an enzyme label.
For data set [4], the system named is colon explants. Kind of data set: Antioxidant gene expression in colon explants (RT-PCR, Western blotting). The note with it: 100 uM, 3-4 hours. Format: cell-based, mouse. How it is done: Explants of proximal and distal colon from mice were treated for 3-4 hours with 100 uM 8Br-cGMP and then the mucosa was harvested for analysis of antioxidant gene and protein expression by RT-PCR and Western blotting. Blots were reprobed for b-actin expression as a loading control.
In addition to attenuating proliferation, the activation of Foxo4 can upregulate antioxidant genes. To determine whether activation of endogenous PKG could affect the expression of antioxidant genes in the colon, explants of proximal and distal colon from mice were treated for 3-4 hours with 100 uM 8Br-cGMP and then the mucosa was harvested for analysis of antioxidant genes expression by RT-PCR or Western blotting. HPRT and b-actin were used as loading controls.
Background: In western blotting, separated proteins are transferred to a membrane and probed.

The next data set concerns JNK. The data set is described as follows: JNK-P in colon explants (immunoblotting). Format: cell-based, mouse. Here is the method: The relative expression of DUSP10 was measured by RT-PCR in wild type and knockout mice (Prkg2+/+ and Prkg2−/−), LS174T and HT29 colon cancer cells with or without PKG2 expression, and in colon explants treated with 8BrcGMP. Mucosa from different parts of the mouse digestive tract were analyzed by immunoblotting for JNKP, total JNK, DUSP10 and PKG2. Immunoblotting of ileum and proximal colon explants with or without 8Br-cGMP treatment to activate PKG2 was also performed.

The subject of data set [5] is colon explants. The data set is described as follows: Redox stress (DCF fluorescence) in colon explants. Particulars: 100 uM. In kind it is cell-based, mouse. How it is done: FIG. 15A is a bar graph showing DCF fluorescence of extracts from colon explants with (cGMP, open bars) or without (control, filled bars) cGMP treatment.
(§1) Colons were removed from sacrificed animals and incubated with 20 μM DCF for 30 minutes, then homogenized and the fluorescence measured (at FITC wavelengths; 485/535 nm). Specimens were incubated directly (30 min time point), or incubated for 30 min or 90 min under standard tissue culture conditions before adding DCF for the final 30 min (60 and 120 min time points).

Data set [6] concerns colon mucosa. Kind of data set: Redox stress in colon mucosa by DCF fluorescence after IP treatment. Format: in vivo, mouse. Particulars: 4 h, p>0.05 by t-test (n=3). How it is done:
After 4 h the animals were sacrificed and the colon mucosa was harvested for analysis of redox stress using DCF fluorescence. Error bars indicate standard deviation (n=3), but p>0.05 by t-test (FIG. 15B)
as §1

Data set [7] deals with colon mucosa. Kind of data set: Colon mucosa homeostasis after 7 days of treatment (TUNEL, BrdU/Ki-67, goblet cell staining). In kind it is in vivo, mouse. Particulars: wild type mice, 5 mg/kg IP b.i.d. 7 days; for epithelial cell death / apoptosis (TUNEL) in colon / mature goblet cell numbers in colon: 5 mg/kg. The source says: Sections were stained for apoptotic cells using TUNEL in control and treated. TUNEL positive cells were found. […] FIG. 12B Quantitation of cell proliferation in the colon mucosa by BrdU incorporation. Asterisks in FIGS. 12A and 12B show statistical significance, p<0.05 of treated relative to control.
Mature goblet cells were counted in different sections of the colon following staining with Alcian blue-periodic acid schiff. FIG. 11A: Different regions of the gut (ilium of small intestine, ascending and descending portions of the colon). FIG. 11B: Relative mature goblet cell number in different sections of the proximal colon. Asterisks indicate significance (p<0.05, n=3).
Immunohistochemistry of tissue samples from Vardenafil treated and control mice was performed.

The next data set has as its system CD1 mouse colon explants. The data set is described as follows: cGMP content of mucosa from mouse colon explants incubated in vitro (ELISA). Format: cell-based. Particulars: 2 hours. Here is the method: The cGMP levels were standardized for protein content using OD280 of the extracts. […] Error bars indicate SEM. Asterisks indicate significance relative to control (p<0.05). CD1 mouse colon explants were incubated with PDE5 inhibitors in vitro. After 2 hours, the mucosa was harvested for analysis of cGMP content by ELISA (FIG. 10A).

For data set [8], the system named is colon mucosa. The data set is described as follows: cGMP content of colon mucosa after intraperitoneal injection (ELISA). Format: in vivo, mouse. Here is the method:
The cGMP levels were standardized for protein content using OD280 of the extracts. […] Error bars indicate SEM. Asterisks indicate significance relative to control (p<0.05). […] FIG. 16A is a bar graph of ileum, proximal and distal tissue versus cGMP (pmol/mg protein). Mice were treated by intraperitoneal injection with PBS in vehicle (ctrl) or Vardenafil in vehicle (Vard.) (equivalence to human dose based on body weight). Colon mucosa was harvested 3 hrs later for analysis of cGMP content with ELISA kit. cGMP level was measured relative to total protein loading. […] Same WT/KO tissues were analyzed for apoptosis (TUNEL). Error bars indicate SEM and asterisks show significance (p<0.05). […] The mice were sacrificed 4 hours later and colon mucosa was harvested for analysis of cGMP content by ELISA. The cGMP levels were standardized for protein content using OD280 of the extracts. The error bars show SEM (FIG. 10B).

Another data set relates to DSS-induced colitis. The data set is described as follows: DSS-induced murine colitis model. Format: in vivo, mouse. Here is the method: FIG. 20A is a line graph of days of treatment versus disease activity index (DAI). […] The animal weight and stool-composition (diarrhea and bleeding) were recorded daily and are shown as disease activity index. Error bars indicate SD (n=3) and asterisks denote statistical significance (p<0.05, t-test). FIG. 20B is a line graph of proximal, mid, and distal tissue samples versus TUNEL/Crypt. Some mice were sacrificed at Day 5 with DSS for pathological analysis. Descending colons of mice treated with control (Ctrl) and Vardenafil (Vard.) were harvested and stained for apoptosis (TUNEL). Positive cells were subjected to quantification and the quantified cells were graphed. Error bars indicate SEM (n=3) and asterisks denote statistical significance (p<0.05 t-test).
Control animals were injected with PBS vehicle. After 5 days the DSS was replaced with water. Incidence and severity of diarrhea and body weight were recorded daily and combined in an index of disease severity.
The best characterized mouse model of IBD involves administration of dextran sulfate-sodium (DSS) in the drinking water, and this is toxic specifically to luminal epithelial cells of the distal colon.

Data set [9] deals with colon mucosa of Prkg2−/− mice. Kind of data set: Colon mucosa homeostasis after 7 days of treatment in PKG2 knockout animals. Format: in vivo, mouse. How it is done:
FIG. 16A is a bar graph of ileum, proximal and distal tissue versus cGMP (pmol/mg protein). […] Colon mucosa was harvested 3 hrs later for analysis of cGMP content with ELISA kit. cGMP level was measured relative to total protein loading. […] Same WT/KO tissues were analyzed for apoptosis (TUNEL). Error bars indicate SEM and asterisks show significance (p<0.05).
FIGS. 17A, 17B, 17C, and 17D are line graphs of ascending, trans, and descending tissue samples versus goblet cells/crypt (17A and B) or CgA/crypt (17C and D). […] Error bars show SEM, N>3, *p<0.05, by two-tailed t-test.
FIGS. 14A-14C show quantification of mature goblet cells in the ascending (A) and transverse colon (B) of wild type and PKG2 knockout animals. […] The increase in goblet cells observed in the wild type animals was not observed in the PKG2-deficient animals, which indicates the involvement of PKG2 in this process.

Each structure is given as a SMILES string. In brackets after ≈: the same amount, converted by molar mass. Entries after “also recorded” stand apart in the source; their conditions may differ.

Here are results for four compounds from patent US20130123264A1, “COMPOSITIONS AND METHODS FOR TREATMENT OF INFLAMMATORY BOWEL DISORDERS AND INTESTINAL CANCERS” (priority 2011, published 2013).

With `CN1CC(=O)N2[C@H](c3ccc4c(c3)OCO4)c3[nH]c4ccccc4c3C[C@@H]2C1=O` [Tadalafil, tadalafil], the t1/2 in [1] is reported as 17.5 h.

One may read the Solubility as the dissolved amount per volume that the medium holds. On to `CCCc1nn(C)c2c(=O)nc(-c3cc(S(=O)(=O)N4CCN(C)CC4)ccc3OCC)[nH]c12` [Sildenafil, sildenafil], for which the Solubility in [2] was 3.5 mg/mL (≈ 7.37 mM). For the same compound, the “intracellular cGMP levels” value in data set [3] is recorded as “significantly increased”. In data set [1], the t1/2 is 3 to 5 h.

For `Nc1nc2c(nc(Br)n2[C@@H]2O[C@@H]3COP(=O)(O)O[C@H]3[C@H]2O)c(=O)[nH]1` [8Br-cGMP], in the data set with colon explants [4], the “antioxidant gene expression in colon explants” value is listed as “broad increase”. Besides, in the data set on JNK, the “basal activated JNK-P levels in colon explants” value is listed as “decrease”. Moreover, the “redox stress (DCF fluorescence) in colon explants” value in the data set on colon explants [5] is reported as “decreased”.

As to `CCCc1nc(C)c2c(=O)[nH]c(-c3cc(S(=O)(=O)N4CCN(CC)CC4)ccc3OCC)nn12` [Vardenafil, vardenafil], the “redox stress levels in the colon mucosa (DCF fluorescence)” value in the data set on colon mucosa [6] was “partly mimic antioxidant effects of exogenous cGMP; also recorded: could indeed affect redox stress levels”. In the data set with colon mucosa [7], the “crypt proliferation (BrdU, Ki-67) in colon” value is “reduced”; the “epithelial cell death / apoptosis (TUNEL) in colon” value is given as “reduction; also recorded: reduced”; the “mature goblet cell numbers in colon” value is reported as “dramatic increase”. Moreover, in the data set with colon mucosa [7] (listed as vardenafil), the “epithelial cell death / apoptosis (TUNEL) in colon” value is given as “reduced” and the “mature goblet cell numbers in colon” value is listed as “significantly increased”. Besides, the Solubility in data set [2] was 0.11 mg/mL (≈ 0.225 mM). Also, in [3], the “intracellular cGMP levels” value was “significantly increased”. For the same compound, the “cGMP levels in mouse colon explants” value in the data set with CD1 mouse colon explants is recorded as “significantly increase”. The “cGMP in the proximal colon epithelium” value in the data set with colon mucosa [8] (IP, lesser extent in terminal ileum and distal colon) was “rapidly increased”. For the same compound, in the data set with colon mucosa [8] (intraperitoneal injection, mucosa harvested 4 hours later), the “intracellular cGMP levels in mouse colon mucosa” value is listed as “significant increase”. In the data set with DSS-induced colitis (5% DSS, n=4, half the untreated animals died), this compound registered a death of animals of 25%. The “DSS induced apoptosis (TUNEL)” value in the data set on DSS-induced colitis (Day 5 with DSS) is listed as “inhibited”. Moreover, in the data set with DSS-induced colitis (descending colon, JNK-phospho T183/Y185), the “DSS induced activation of JNK” value is “inhibited”. Also, the “DUSP10 levels in the colon mucosa” value with DSS-induced colitis (wild type mice) is “increased”. Besides, the “increase in goblet cells” value in data set [9] (PKG2-deficient animals, 5 mg/kg IP b.i.d. 7 days) is given as “not observed”. Moreover, the reduction in apoptosis entry in data set [9] (PKG2 knockouts, 5 mg/kg IP b.i.d. 7 days) is recorded as “not observed”. Besides, in [9] (i.p. for several days), the “homeostasis in Prkg2−/− animals” value is given as “did not affect”. In [1], the t1/2 is 4 to 5 h.
